The test system of experiment [1] is Carrageenan-Induced Cellular Infiltration into the Rat Air Pouch. Nature of the experiment: Carrageenan-induced air pouch inflammation. The format is in vivo, rat (male Lewis). From the text:
(§1) In the following Examples where mice were used, they were male Balb/c mice (20-28 g), and where rats were used, they were male Lewis rats (180-210 g). All mice and rats were obtained from Charles River Breeding Laboratories, Kingston, N.Y. Within a single experiment, mice and rats were sex and age matched.
(§2) The compounds of Formula (I) were used either as the free base or in the appropriate salt form. Levamisole was used as the hydrochloride salt. The compounds were homogenized in 0.5% tragacanth. Compounds were administered by gavage at the indicated dose in a final volume of 10 ml/kg. Nordihydroguaiaretic acid (NDGA) was solubilized in dimethylacetamide and diluted with olive oil for subcutaneous administration.
(§3) Rats were shaved on the dorsal flank, and then injected subcutaneously one day later with 20 ml of air to form a defined pouch, by the method of Sedgwick et al., J. Pathology, 141, 483-495 (1983). The air pouch was reinflated as necessary over the next 6 days. To assay anti-inflammatory activity, animals were treated orally with test compound or vehicle (10 ml/kg) one hour before injection of 2.0 ml of a 2.0% carrageenan suspension containing […] penicillin and 100 µg/ml streptomycin into the air pouch. In other experiments, 5 ml of 0.1% arachidonic acid in 0.2M bicarbonate buffer was injected two hours after drug treatment. Animals were sacrificed using CO2 three hours after instillation of irritant. The exudate was then aspirated from the pouch and neutrophil count and differential cell count were measured.

Experiment [2] deals with Arachidonic Acid-Induced Rat Paw Edema. The experiment in a line: Arachidonic acid-induced rat paw swelling. The class given is in vivo, rat (male Lewis).
Description: as §1
Auranofin, phenidone, indomethacin, naproxen, and ibuprofen were each used as the free base. The compounds of Formula (I) were used either as the free base or in the appropriate salt form. Levamisole was used as the hydrochloride salt. The compounds were homogenized in 0.5% tragacanth. Compounds were administered by gavage at the indicated dose in a final volume of 10 ml/kg. Nordihydroguaiaretic acid (NDGA) was solubilized in dimethylacetamide and diluted with olive oil for subcutaneous administration.
After determining pretreatment paw volumes by plethysmography by the method of Webb and Griswold, J. Pharmacol. Methods, 12, 149-153 (1984), rats were given test compound or vehicle one hour prior to the subplantar injection of 0.1 ml of 1 mg/ml arachidonic acid. Paw volumes were then remeasured and compared to pretreatment values and the increase in paw volume was expressed as mean values ± S.D.

In a further experiment the target is T1, Cyclooxygenase (Rattus norvegicus, UniProt Q63921).
T1 construct: The activities of these enzymes in extracts of RBL-1 cells were assayed; host or cells: RBL-1
T1 sequence (Q63921 27-602): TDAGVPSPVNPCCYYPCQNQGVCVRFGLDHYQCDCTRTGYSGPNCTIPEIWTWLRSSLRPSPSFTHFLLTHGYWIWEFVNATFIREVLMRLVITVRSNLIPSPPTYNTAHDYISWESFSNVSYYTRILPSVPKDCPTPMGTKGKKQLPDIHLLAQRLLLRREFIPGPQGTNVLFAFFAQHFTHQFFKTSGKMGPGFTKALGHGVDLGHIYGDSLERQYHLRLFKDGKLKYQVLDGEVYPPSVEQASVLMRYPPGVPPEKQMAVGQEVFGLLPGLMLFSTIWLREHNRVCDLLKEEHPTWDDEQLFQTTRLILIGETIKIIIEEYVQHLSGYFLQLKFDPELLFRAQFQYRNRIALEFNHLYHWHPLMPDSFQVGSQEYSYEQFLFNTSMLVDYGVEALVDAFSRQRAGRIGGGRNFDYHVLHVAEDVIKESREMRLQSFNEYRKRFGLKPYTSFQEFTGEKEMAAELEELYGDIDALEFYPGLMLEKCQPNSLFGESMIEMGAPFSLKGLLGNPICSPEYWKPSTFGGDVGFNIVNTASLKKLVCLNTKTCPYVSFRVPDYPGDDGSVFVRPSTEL
The experiment in a line: Cyclooxygenase activity (PGD2) in RBL-1 cell extracts, 10,000 x g supernatant. The class given is biochemical. Conditions: Table 8.

In experiment [3] the test system is Infiltration of Polymorphonuclear Leukocytes into Sites of Carrageenan-Induced Inflammation. The experiment in a line: Mouse carrageenan peritonitis (PMN infiltration). The class given is in vivo, mouse (male Balb/c). The settings on record: carrageenan peritonitis, mice.
Description: as §1, §2
Mice were pretreated with either the test compound or vehicle one hour before the intraperitoneal injection of a 1.0% carrageenan suspension in saline (0.2 ml/mouse). Mice were sacrificed by cervical dislocation two hours after injection, and 3.0 ml of phosphate buffered saline, without Ca^++ or Mg^++, was injected into the peritoneum. Following massage, a 2.0 ml aliquot of the lavage fluid was removed, and the total cell count determined on a Coulter counter and differential cell count determined by microscopic examination of Giesma-stained slides.

The test system of experiment [4] is Arachidonic Acid-Induced Cellular Infiltration into the Rat Air Pouch. Nature of the experiment: Arachidonic acid-induced air pouch inflammation. The format is in vivo, rat (male Lewis).
Description: as §1, §2, §3

In experiment [5] the test system is LTB4 synthesis by peritoneal exudate cells. Nature of the experiment: Ex vivo production of LTB4 from peritoneal exudate cells of drug-treated mice. The format is in vivo, mouse. Conditions: for inhibition at 200 mg/kg: Mus musculus, po, 200 mg/kg p.o. From the text: In the following Examples where mice were used, they were male Balb/c mice (20-28 g), and where rats were used, they were male Lewis rats (180-210 g). All mice and rats were obtained from Charles River Breeding Laboratories, Kingston, N.Y. Within a single experiment, mice and rats were sex and age matched. Auranofin, phenidone, indomethacin, naproxen, and ibuprofen were each used as the free base. The compounds of Formula (I) were used either as the free base or in the appropriate salt form. Levamisole was used as the hydrochloride salt. […] Nordihydroguaiaretic acid (NDGA) was solubilized in dimethylacetamide and diluted with olive oil for subcutaneous administration. Carrageenan-induced peritoneal exudate cells from normal or drug-treated mice were washed and suspended in 2.2 ml of phosphate buffered saline. […] The cell preparation was centrifuged at 1500 rpm for 10 min and the supernatant was extracted using a C-18 silica column. […] A tetrahydrofuran, methanol, water, acetic acid (25:30:45: 0.1) solvent system, adjusted to pH 5.5 with ammonium hydroxide, was used at a flow rate of 0.7 ml/min. Cell derived LTB4 was quantified utilizing standard curves constructed with known amounts of synthetic LTB4.

Description for Cyclooxygenase: For in vitro experiments, compounds were dissolved at appropriate concentrations in ethanol or DMSO (dimethylsulfoxide) (final concentration≤1.0%) and then diluted to final concentrations using the buffers indicated in the text.
RBL-1 cells were obtained from the American Type Culture Collection (#CRL 1378) and were grown at 37° C. (5% CO2 in air) in spinner culture in MEM supplemented with 10% heat inactivated fetal calf serum. Harvested cells were washed with 50 mM sodium phosphate buffer, pH 7.0, containing 1 mM EDTA and 0.1% gelatin, resuspended in fresh buffer (5×10^7 cells/ml) and disrupted by nitrogen cavitation using the Parr bomb at 750 psi for 10 min. The broken cell extract was then centrifuged at 10,000× g for 20 minutes (min) and the supernatant centrifuged at 100,000 xIg for 60 min. Aliquots (0.25 mls) of the supernatant were preincubated with or without drugs for 10 min, after which 10 μl CaCl2 (50 mM) was added and the reaction was initiated with 2.5 μl of 2.5 mM arachidonic acid-1-^14 C (final concentration was 25 μM; specific activity 20,000 dpm/nmole). After incubation for 3 min at 37° C., the reaction was terminated by addition of 2 volumes (0.5 ml) ice cold acetone and the sample was allowed to deproteinize on ice for 10 min prior to centrifugation at 1,000× g for 10 min. […] Arachidonic acid, 5-HETE, LTB4 and PGD2 were quantified with a Berthold LB 2832 autoscanner.

In the case of `O=C1CCN(c2ccccc2)N1` [Phenidone], in experiment [1] (100 mg/kg), the “Cellular Infiltrate MN” value is 3.5 ± 1.4 Total × 10^-6, the “Cellular Infiltrate PMN” value stood at 1.7 ± 0.6 Total × 10^-6 and the “Exudate Volume” value came out at 1.5 ± 0.8 mL. For the same compound, the “Cell infiltration into carrageenan air pouch, result in words” value in experiment [1] (rat, in vivo) was “reduction in the PMN count and the PMN:mononuclear cell ratio”. The “Change in Paw Volume” value in experiment [2] (100 mg/kg, 2 hours post arachidonic acid) is 0.13 ± 0.05 mL. The “Rat paw inflammatory response, result in words” value in experiment [2] (rat, in vivo) is given as “inhibited significantly”. For the same compound, at Cyclooxygenase, the “IC50 Cyclooxygenase” value is on record as “Inactive @ 100”. The “PMN infiltration, result in words” value in experiment [3] was “effective”. Besides, in experiment [4] (100 mg/kg), the “Cellular Infiltrate MN” value amounted to 2.2 ± 1.5 Total × 10^-6, the “Cellular Infiltrate PMN” value turned out to be 1.3 ± 0.8 Total × 10^-6 and the “Exudate Volume” value was found to be 2.8 ± 0.4 mL. The “Cell infiltration into arachidonic acid air pouch, result in words” value in experiment [4] (rat, in vivo) is “significantly reduced PMN and mononuclear cell infiltration”. The compound further yielded an inhibition at 200 mg/kg in experiment [5] (Experiment 2) of 21%. In experiment [5] (Experiment 3), this compound returned an inhibition at 200 mg/kg of 33%. Further, the “LTB4 production ex vivo, result in words” value in experiment [5] (mouse, in vivo) is given as “weaker but inhibition of LTB4 synthesis”.

As a reminder, the inhibition is the relative decrease from the control value, in per cent. Lower therefore signals a weak effect.

The record behind these values is patent publication US5134150A, “Inhibition of the 5-lipoxygenase pathway” (priority 1989, dated 1992).
